A word on the remaining activity: it is what remains of the control signal, in per cent.

Holding throughout (type): biochemical
One test addresses JNK2 (Homo sapiens, UniProt P45984). Put plainly: Kinase screen: JNK2 assay. On the procedure:
(§1) Generally, the same procedure was used for all assays. Since the total assay volume was 25.5 microliters, 0.5 microliters of inhibitors at 51× assay concentration were added to the plates before any other addition.
(§2) The basic procedure was to add 0.5 microliters inhibitor/control in DMSO to plate. Fifteen microliters of enzyme/substrate/buffer mix were added and incubated for 5 min. Ten microliters MgATP at the relevant concentration were added and incubated for 30 min. The assay was stopped by adding 5 microliters of 3% orthophosphoric acid. The assay was transferred to a p81 filter plate and read in a scintillation counter of 30 sec/well. Note that this assay procedure was not followed for MKK1, which instead involved a two-step assay, and PKC alpha, which required the addition of lipid vesicles.
JNK2 assay: JNK2 1(5-20 mU diluted in 50 mM Tris (pH 7.5), 0.1 mM EGTA, 1 mg/ml BSA, 0.1% b-mercaptoethanol) was assayed against ATF2 (activating transcription factor in a final volume of 25.5 μl in 50 mM Tris pH 7.5, 0.1 mM EGTA, 0.1% b-Mercaptoethanol, ATF2 (3 μM), 10 mM magnesium acetate and 0.02 mM [33P-g-ATP] (500-1000 cpm/pmole) and incubated for 30 min at room temperature. Assays were stopped by addition of 5 μl of 0.5 M (3%) orthophosphoric acid and then harvested onto P81 Unifilter plates with a wash buffer of 50 mM orthophosphoric acid.

Another test addresses MELK (Homo sapiens, UniProt Q14680). The test can be described thus: Kinase screen: MELK assay. The protocol: as §1, §2
MELK assay: MELK (5-20 mU diluted in 50 mM Tris pH 7.5, 0.1 mM EGTA, 0.1% b-mercaptoethanol, 1 mg/ml BSA) was assayed against a substrate peptide ([…]) (SEQ ID NO: 33) in a final volume of 25.5 μl containing 50 mM Tris pH 7.5, 0.05% b-mercaptoethanol, 200 μM substrate peptide, 10 mM magnesium acetate and 0.05 mM [33P-g-ATP] (50-1000 cpm/pmole) and incubated for 30 min at room temperature. Assays were stopped by addition of 5 μl of 0.5 M (3%) orthophosphoric acid and then harvested onto P81 Unifilter plates with a wash buffer of 50 mM orthophosphoric acid.

In another test the target is IRR (Homo sapiens, UniProt P14616). The test can be described thus: Kinase screen: IRR assay. The following applies: 10 micromolar compound; for remaining activity at 10 µM: read-out: mean activity remaining (as a percentage of the original activity), IRR. The protocol:
as §1, §2
IRR assay: 5-20 mU of IRR (diluted in 50 mM Hepes (pH 7.5), 0.1 mM EGTA) was assayed against MBP in a final volume of 25.5 μl containing 50 mM Hepes (pH 7.5), 0.1 mM EGTA, 0.33 mg/ml MBP, 10 mM magnesium acetate and 0.005 mM [33P-g-ATP](500-1000 cpm/pmole) and incubated for 30 mins at room temperature. Assays were stopped by addition of 5 μl of 0.5M (3%) orthophosphoric acid. Assays were harvested onto P81 Unifilter plates using a wash buffer of 50 mM orthophosphoric acid.

The target of the next test is PAK4 (Homo sapiens, UniProt O96013). The test can be described thus: Kinase screen: PAK4 assay. On the procedure: as §1, §2
PAK4 assay: PAK4 (5-20 mU diluted in 50 mM Tris pH 7.5, 0.1 mM EGTA, 0.1% b-mercaptoethanol, 1 mg/ml BSA) was assayed against a substrate peptide ([…]) (SEQ ID NO: 30) in a final volume of 25.5 μl containing 50 mM Tris pH 7.5, 0.05% b-mercaptoethanol, 300 μM substrate peptide, 10 mM magnesium acetate and 0.005 mM [33P-g-ATP] (50-1000 cpm/pmole) and incubated for 30 min at room temperature. Assays were stopped by addition of 5 μl of 0.5 M (3%) orthophosphoric acid and then harvested onto P81 Unifilter plates with a wash buffer of 50 mM orthophosphoric acid.

The next test has as its target PAK6 (Homo sapiens, UniProt Q9NQU5). The test can be described thus: Kinase screen: PAK6 assay. The protocol:
as §1, §2
PAK6 assay: PAK6 (5-20 mU diluted in 50 mM Tris pH 7.5, 0.1 mM EGTA, 0.1% b-mercaptoethanol, 1 mg/ml BSA) was assayed against a substrate peptide ([…]) (SEQ ID NO: 30) in a final volume of 25.5 μl containing 50 mM Tris pH 7.5, 0.05% b-mercaptoethanol, 300 μM substrate peptide, 10 mM magnesium acetate and 0.02 mM [33P-g-ATP] (50-1000 cpm/pmole) and incubated for 30 min at room temperature. Assays were stopped by addition of 5 μl of 0.5 M (3%) orthophosphoric acid and then harvested onto P81 Unifilter plates with a wash buffer of 50 mM orthophosphoric acid.

[1] abbreviates: 10 micromolar compound, read-out: mean activity remaining (as a percentage of the original activity), JNK2.
[2] abbreviates: 10 micromolar compound, read-out: mean activity remaining (as a percentage of the original activity), MELK.
Setting [3] is: 10 micromolar compound, read-out: mean activity remaining (as a percentage of the original activity), PAK4.
Setting [4] is: 10 micromolar compound, read-out: mean activity remaining (as a percentage of the original activity), PAK6.

Read-outs that look alike come from different tables or passages of the source.

Chain of JNK2 (P45984 whole entry, species assumed): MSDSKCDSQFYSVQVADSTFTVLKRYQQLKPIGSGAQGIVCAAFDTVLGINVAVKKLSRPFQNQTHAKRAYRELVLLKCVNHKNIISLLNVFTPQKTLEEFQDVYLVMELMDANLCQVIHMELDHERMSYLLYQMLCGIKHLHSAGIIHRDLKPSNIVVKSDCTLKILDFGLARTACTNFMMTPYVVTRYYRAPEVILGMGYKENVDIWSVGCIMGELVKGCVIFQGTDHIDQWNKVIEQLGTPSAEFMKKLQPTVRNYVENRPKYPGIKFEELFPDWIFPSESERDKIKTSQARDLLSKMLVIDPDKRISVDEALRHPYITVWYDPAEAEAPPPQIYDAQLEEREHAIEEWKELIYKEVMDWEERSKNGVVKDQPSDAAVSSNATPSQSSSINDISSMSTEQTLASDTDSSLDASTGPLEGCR
Chain of PAK4 (O96013 whole entry, species assumed): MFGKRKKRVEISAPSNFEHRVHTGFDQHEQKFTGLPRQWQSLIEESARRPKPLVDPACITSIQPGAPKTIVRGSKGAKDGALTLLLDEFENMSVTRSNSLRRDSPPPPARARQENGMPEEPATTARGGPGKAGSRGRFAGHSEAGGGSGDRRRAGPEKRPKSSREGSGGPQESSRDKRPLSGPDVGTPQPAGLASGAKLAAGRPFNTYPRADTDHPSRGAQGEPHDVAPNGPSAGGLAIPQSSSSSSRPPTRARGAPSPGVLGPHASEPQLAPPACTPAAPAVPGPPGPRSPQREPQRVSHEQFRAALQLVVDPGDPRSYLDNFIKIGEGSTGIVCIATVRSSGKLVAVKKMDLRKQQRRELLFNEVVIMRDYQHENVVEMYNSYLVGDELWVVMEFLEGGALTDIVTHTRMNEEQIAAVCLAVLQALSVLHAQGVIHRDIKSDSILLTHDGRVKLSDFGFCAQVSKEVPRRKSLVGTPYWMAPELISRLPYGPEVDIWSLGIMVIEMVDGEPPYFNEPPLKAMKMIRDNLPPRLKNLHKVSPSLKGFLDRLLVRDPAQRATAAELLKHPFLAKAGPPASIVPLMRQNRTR
Chain of MELK (Q14680 whole entry, species assumed): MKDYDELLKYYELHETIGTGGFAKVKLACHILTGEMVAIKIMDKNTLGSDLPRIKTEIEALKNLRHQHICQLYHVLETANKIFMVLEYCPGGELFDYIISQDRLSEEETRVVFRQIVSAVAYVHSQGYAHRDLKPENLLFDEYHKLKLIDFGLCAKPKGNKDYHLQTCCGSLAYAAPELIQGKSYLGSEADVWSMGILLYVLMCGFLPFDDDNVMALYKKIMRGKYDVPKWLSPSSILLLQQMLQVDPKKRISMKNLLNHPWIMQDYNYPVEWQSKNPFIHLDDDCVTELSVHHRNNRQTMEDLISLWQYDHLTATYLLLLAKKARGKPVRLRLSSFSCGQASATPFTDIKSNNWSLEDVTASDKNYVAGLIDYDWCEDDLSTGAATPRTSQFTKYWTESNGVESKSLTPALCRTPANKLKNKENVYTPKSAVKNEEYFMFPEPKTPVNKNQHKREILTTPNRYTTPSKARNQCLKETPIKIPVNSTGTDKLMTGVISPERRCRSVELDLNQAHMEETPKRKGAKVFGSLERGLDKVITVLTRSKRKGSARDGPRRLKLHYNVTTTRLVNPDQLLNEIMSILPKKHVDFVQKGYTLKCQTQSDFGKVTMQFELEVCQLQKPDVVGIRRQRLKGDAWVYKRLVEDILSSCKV
Chain of PAK6 (Q9NQU5 whole entry, species assumed): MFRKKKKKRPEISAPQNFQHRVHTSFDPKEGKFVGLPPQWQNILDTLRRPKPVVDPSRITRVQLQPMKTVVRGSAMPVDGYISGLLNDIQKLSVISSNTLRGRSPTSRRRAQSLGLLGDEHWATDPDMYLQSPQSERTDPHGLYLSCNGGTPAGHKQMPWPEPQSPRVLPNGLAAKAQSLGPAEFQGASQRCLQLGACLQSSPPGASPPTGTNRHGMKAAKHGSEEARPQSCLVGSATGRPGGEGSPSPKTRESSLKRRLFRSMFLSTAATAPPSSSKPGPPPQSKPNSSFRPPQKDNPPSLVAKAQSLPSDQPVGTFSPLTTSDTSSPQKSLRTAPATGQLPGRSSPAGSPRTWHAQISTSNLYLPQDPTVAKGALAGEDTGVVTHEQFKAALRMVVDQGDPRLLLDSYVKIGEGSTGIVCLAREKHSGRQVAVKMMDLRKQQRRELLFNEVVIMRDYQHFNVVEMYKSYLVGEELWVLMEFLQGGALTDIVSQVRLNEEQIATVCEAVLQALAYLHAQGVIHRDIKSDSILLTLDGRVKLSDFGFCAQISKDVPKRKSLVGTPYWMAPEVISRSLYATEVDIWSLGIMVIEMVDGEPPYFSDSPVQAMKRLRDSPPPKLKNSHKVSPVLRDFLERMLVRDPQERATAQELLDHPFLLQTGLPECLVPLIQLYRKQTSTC
Chain of IRR (P14616 27-1297, species assumed): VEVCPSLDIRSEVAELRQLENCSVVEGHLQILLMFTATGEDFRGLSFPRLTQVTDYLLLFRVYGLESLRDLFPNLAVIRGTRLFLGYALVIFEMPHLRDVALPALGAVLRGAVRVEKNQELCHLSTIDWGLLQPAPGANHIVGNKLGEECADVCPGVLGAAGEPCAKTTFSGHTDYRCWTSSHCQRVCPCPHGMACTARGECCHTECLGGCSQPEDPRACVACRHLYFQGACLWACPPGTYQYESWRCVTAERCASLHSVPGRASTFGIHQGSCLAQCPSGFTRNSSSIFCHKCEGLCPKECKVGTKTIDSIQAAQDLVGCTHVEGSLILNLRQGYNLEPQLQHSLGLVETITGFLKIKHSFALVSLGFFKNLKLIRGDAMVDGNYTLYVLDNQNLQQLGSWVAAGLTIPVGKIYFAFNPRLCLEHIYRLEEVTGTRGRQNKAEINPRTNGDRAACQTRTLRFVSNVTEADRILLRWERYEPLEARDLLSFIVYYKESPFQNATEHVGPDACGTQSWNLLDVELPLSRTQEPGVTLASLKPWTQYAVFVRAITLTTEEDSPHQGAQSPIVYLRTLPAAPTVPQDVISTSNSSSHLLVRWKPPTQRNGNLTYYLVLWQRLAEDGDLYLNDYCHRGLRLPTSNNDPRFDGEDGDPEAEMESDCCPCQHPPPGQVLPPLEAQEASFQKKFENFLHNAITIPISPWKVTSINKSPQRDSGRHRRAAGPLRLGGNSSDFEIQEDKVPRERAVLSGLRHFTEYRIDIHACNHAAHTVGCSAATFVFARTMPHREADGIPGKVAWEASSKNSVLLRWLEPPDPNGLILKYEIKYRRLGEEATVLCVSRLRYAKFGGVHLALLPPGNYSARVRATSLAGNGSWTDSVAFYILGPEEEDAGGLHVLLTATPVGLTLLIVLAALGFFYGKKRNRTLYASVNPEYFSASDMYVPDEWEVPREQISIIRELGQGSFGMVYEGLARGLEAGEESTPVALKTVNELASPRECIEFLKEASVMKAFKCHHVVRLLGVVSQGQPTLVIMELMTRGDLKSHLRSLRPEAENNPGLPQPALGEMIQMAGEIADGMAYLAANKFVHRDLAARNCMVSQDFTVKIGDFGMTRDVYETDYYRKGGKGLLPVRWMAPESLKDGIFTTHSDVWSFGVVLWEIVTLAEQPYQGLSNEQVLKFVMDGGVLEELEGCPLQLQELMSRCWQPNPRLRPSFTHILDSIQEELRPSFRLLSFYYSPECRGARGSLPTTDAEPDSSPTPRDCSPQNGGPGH

In the case of `CC(C)c1cnn2c(NCc3ccccc3F)cc(NCCCCCN)nc12` [ICEC-0232], at JNK2 (10 micromolar compound), the “mean activity remaining (as a percentage of the original activity), JNK2” value is 89%. Further, on MELK (10 micromolar compound), the “mean activity remaining (as a percentage of the original activity), MELK” value was 62%. Moreover, the “mean activity remaining (as a percentage of the original activity), IRR” value at IRR is reported as 29%. For the same compound, the “mean activity remaining (as a percentage of the original activity), PAK4” value on PAK4 (10 micromolar compound) is 58%. In addition, the “mean activity remaining (as a percentage of the original activity), PAK6” value on PAK6 (10 micromolar compound) was determined as 85%.
As to `CC[C@H](CO)Nc1cc(NCc2ccccc2)n2ncc(C(C)C)c2n1` [ICEC0067], the remaining activity at 10 µM amounted to 97% on JNK2 (setting [1]); 75% at MELK (setting [2]); 23% on IRR; 75% at PAK4 (setting [3]); 78% on PAK6 (setting [4]).
For the compound `CC(C)c1cnn2c(NCc3ccccc3)cc(NCCCCCCCN)nc12` [BS-181], the remaining activity at 10 µM stood at 90% on JNK2 (JNK2, 10 μM, read-out: Mean Remaining Enzyme Activity (%)); 63% at MELK (MELK, 10 μM, read-out: Mean Remaining Enzyme Activity (%)); 75% on PAK4 (PAK4, 10 μM, read-out: Mean Remaining Enzyme Activity (%)); 95% on PAK6 (PAK6, 10 μM, read-out: Mean Remaining Enzyme Activity (%)).
As to `C=C[C@H](CO)Nc1cc(NCc2ccccc2)n2ncc(C(C)C)c2n1` [ICEC0065], the remaining activity at 10 µM is 88% on JNK2 (setting [1]); 90% on MELK (setting [2]); 24% on IRR; 82% at PAK4 (setting [3]); 82% at PAK6 (setting [4]).
Turning to `CC(C)c1cnn2c(NCc3ccccc3)cc(N[C@@H](CO)[C@H](O)CO)nc12` [ICEC0318, (3S)-3-(7-(Benzylamino)-3-isopropylpyrazolo[1,5-a]pyrimidin-5-ylamino)butane-1,2,4-triol], the remaining activity at 10 µM at JNK2 (setting [1]) was 94%; on MELK (setting [2]) it was 88%; on IRR it was 32%; on PAK4 (setting [3]) it was 55%; on PAK6 (setting [4]) it was 85%.

For the origin of these results see patent publication US8067424B2, “Selective inhibitors for cyclin-dependent kinases” (Emory University, priority 2007, dated 2011).
